Data: patent US20130129595A1 (SOLVAY SA, priority 2010, published 2013)

Assay: Solubility of LiPO2F2, LiF and LiPF6 in organic solvents

With `[F-].[Li+]` [LiF] the “Solubility (in words)” value (in acetone) was “very low solubility”, the “Solubility (in words)” value (in aprotic organic solvents) was “only very sparingly soluble” and the “Solubility (in words)” value (in dimethoxyethane) was “at most in negligible amounts”. For the same compound, the “Solubility (in words)” value (in dimethyl carbonate and propylene carbonate) was “essentially insoluble”.

In the case of `F[P-](F)(F)(F)(F)F.[Li+]` [LiPF6], the “Solubility (in words)” value (in aprotic organic solvents) is reported as “comparably good solubility”.
